In US7728128B2, “Dibenzo[c,h][1,5]naphthyridines and their use as DNA probes” (Institut National de la Sante et de la Recherche Medicate …, priority 2006, dated 2010):

Tests used:
plasmid DNA = assay: fluorescence of free molecules before and after addition of plasmid DNA; format: physicochemical; set-up: Fluorescence maxima free dye / Fluorescence maxima DNA bound dye: unit not given beside the values
Protocol: Plasmid dsDNA was purified using a Qiagen Maxiprep kit and used in the supercoiled form for absorption and fluorescence studies. E. coli total RNA was bought from Ambion, dA/dT and dG/dC homopolymers were purchased from Amersham Biosciences. Calf thymus (CT) high-molecular weight DNA and Hoechst 33258 were obtained from Sigma-Aldrich. Ethidium bromide was purchased from Amresco.
Spectrometry and fluorimetry were performed using a SpectraMax384 (Molecular Devices) and a Luminescence Spectrometer LS50B (Perkin Elmer). Fluorescence emission of compound I in complex with DNA and RNA was measured in 50 mM Na phosphate buffer, pH 7.2 at room temperature. Before use, total E. coli RNA was heated to 100° C. for 1 min and immediately transferred on ice for 5 min before mixing with compound I solution. All measurements were carried out at room temperature (20-23° C.) in solutions protected from light and incubated for ˜10-15 min after dilution. The units of b/dye and bp/dye are defined as moles of RNA bases or DNA base pairs per mole of dye. Quantum yield was measured using quinine sulphate as standard as described in (Iupac Commission on Photochemistry, EPA Newsletter of November 1986, 21-29) using FLUOROMAX-3 Spex Spectrofluorometer (HORIBA) and UVIKON XL Spectrophotometer (SECOMAM).
Although compound I also stains mitotic chromosomes (FIG. 1D), theoretically it was possible that it binds specifically to DNA-associated proteins (for example histones) rather than to nucleic acids. To resolve this issue, the absorption and emission spectra of free compound I before and after addition of dsDNA were recorded. […] Molar extinction coefficient (EC) of free compound I at 391 nm was measured at 10,800 cm^−1 M^−1. In the presence of ds plasmid DNA the absorption peaks of compound I at 373 and 391 nm decreased, and a new peak appears with a maximum at 435 nm (FIG. 1E). An overlay of the absorption spectra in complex with dsDNA at different bp per dye ratios gives a single isosbestic point at 398 nm. Free compound I fluoresces around 438 nm (the exact position of the peak depends on the excitation wavelength). […] At the same time, a new peak evolves with a maximum around 484 nm (FIG. 1F). The exact maximum of fluorescence of compound I/DNA complexes varies insignificantly as a function of the dye/bp ratio and/or base pairs composition of the nucleic acids. […] The quantum yield for compound I (excited at 435 nm) at 5 μM in 50 mM Na-phosphate, pH 7.2, was determined to be 2.7% for free dye and 13.8% in admixture with 50 μM CT DNA.
To get a further insight into how the structural properties of compound I contribute to its binding to DNA, the inventors analysed fourteen structural analogues present in the compound library. Although several of these compounds are fluorescent in vivo, this property went undetected in the initial screen most likely due to the latency period before the appearance of the signal (see below). To evaluate the activity of compound I-like molecules three tests were used: (1) in vivo, the inventors incubated human fibroblasts in the presence of the molecules and scored nuclear fluorescence in the microscope; (2 and 3) in vitro, the inventors looked at the absorption and fluorescence of free molecules before and after addition of plasmid DNA. […] With the exception of compound I and analogues 8 and 12, accurate in vitro measurement of the fluorescence intensities was impossible because the emission peaks for the free molecules were too close to that for the DNA-bound dye. This affected the height of the dye/DNA peaks.

[1] = test system: Methanol-fixed primary human fibroblasts; assay: nuclear fluorescence in fixed cells under continuous illumination; format: cell-based
Protocol: Primary human skin fibroblasts were grown on poly-D-lysine-coated glass coverslips and fixed in cold (−20° C.) anhydrous methanol for 15 min. Samples were re-hydrated in PBS (150 mM NaCl, 20 mM Na-phosphate, pH 7.2), rinsed with 10% PBS (diluted with water) and stained with 120 μM compound I in 10% PBS for 15 min at room temperature in the dark. Samples were mounted, without washing, using the FluorSave™ mounting medium (Calbiochem) or Mowiol and analysed within 3 hours. For image acquisition (FIG. 5B,D) cells were illuminated continuously (open shutter) for 30 min using an Omega filter set XF100-2 (see above). […] Fluorescence of each region at the last time point was taken as 100% and fluorescence intensities at the same region at previous time points (frames) were calculated using Microsoft Excel software.
To quantify this effect, live mouse fibroblasts were incubated in the presence of 5 μM compound I and time-lapse video microscopy was used to film the cells. Nuclear fluorescence develops slowly in the nuclei of cells treated with compound I and illuminated continuously using a standard Alexa488/FITC filter set (475AF40, 535AF45) (FIG. 5A). […] To test this possibility, the inventors stained nuclei of fixed cells with compound I and measured nuclear fluorescence during a continuous 30 min illumination. […]

Structure (SMILES): COc1ccc2c(c1)c(C)nc1c3ccc(OC)cc3c(NCCCN(C)C)nc21 [Compound I, N′-(2,8-dimethoxy-12-methyl-dibenzo[c,h][1,5]naphthyridin-6-yl)-N,N-dimethyl-propane-1,3-diamine]
- emission maximum of new peak upon DNA binding (plasmid DNA; DNA-bound): around 484 nm
- hypsochromic shift of the 438 nm emission peak upon DNA binding (plasmid DNA; DNA-bound): 426 nm
- Fluorescence maxima DNA bound dye (plasmid DNA; after addition of plasmid DNA): 484
- emission peak of free dye (plasmid DNA; free compound): around 438 nm
- Fluorescence maxima free dye (plasmid DNA; free molecule, before addition of plasmid DNA): 438
- emission maximum (plasmid DNA; plasmid DNA at bp/dye ratio 40): 472 nm
- average pixel values in a representative nucleus ([1]; plane (1), start of 30 min illumination): 512
- average pixel values in a representative nucleus ([1]; plane (1800), end of 30 min illumination): 1434
